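Grown in 96-well plates, cells were treated for 48 hours with each compound at five concentrations. Insufficient inhibition: endpoint recorded as highest concentration tested. GI50: concentration for 50% inhibition of growth.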 Activity calls are given as the source filed them. Cut-off read from the data, not from the text of the source: active = GI50 up to about 1.1 µM and inactive = higher.
Columns and labels:
Experiment in all cases: NCI anticancer screen, dose series, 48 h
[1] = test system: SK-MEL-28
[2] = test system: SF-268
[3] = test system: SK-MEL-2
[4] = test system: NCI-H23
[5] = test system: RPMI-8226
[6] = test system: UACC-62
[7] = test system: HCC 2998
[8] = test system: HCT-15
[9] = test system: COLO 205
[10] = test system: OVCAR-3
[11] = test system: LOX IMVI
[12] = test system: CAKI-1
[13] = test system: U-251
[14] = test system: A549
[15] = test system: MDA-MB-231
[16] = test system: SK-MEL-5
[17] = test system: T47D
[18] = test system: MCF7
[19] = test system: PC-3

Structure (SMILES) | GI50 [1] | GI50 [2] | GI50 [3] | GI50 [4] | GI50 [5] | GI50 [6] | GI50 [7] | GI50 [8] [µM] | GI50 [9] | GI50 [10] | GI50 [11] | GI50 [12] | GI50 [13] | GI50 [14] | GI50 [15] | GI50 [16] | GI50 [17] | GI50 [18] | GI50 [19]
O=C(O)CCCc1cc2c(s1)-c1cccc3cccc-2c13 | 34.2 µM (inactive) | 39.6 µM (inactive) | 20.4 µM (inactive) | 21.2 µM (inactive) | 21.5 µM (inactive) | 21.3 µM (inactive) | 24.3 µM (inactive) | 20.2 | 20.3 µM (inactive) | 19.1 µM (inactive) | 21.9 µM (inactive) | 32.6 µM (inactive) | 25.4 µM (inactive) | 36.6 µM (inactive) | – | – | – | – | –
Cc1ccc(/C(=C/C=C(C#N)C#N)Sc2cc(Cl)ccc2Cl)cc1 | 8.57 µM (inactive) | 5.97 µM (inactive) | 8.75 µM (inactive) | 3.85 µM (inactive) | – | 3.85 µM (inactive) | – | 3.06 | 4.86 µM (inactive) | 3.06 µM (inactive) | 1.01 µM (active) | 4.76 µM (inactive) | 3.21 µM (inactive) | 9.98 µM (inactive) | 3.18 µM (inactive) | 12.1 µM (inactive) | 12.9 µM (inactive) | 17.5 µM (inactive) | –
CCOC(=O)CC(=O)NC1CC2CCC1(C)C2(C)C (stereo not drawn) | > 100 µM (inactive) | > 100 µM (inactive) | – | > 100 µM (inactive) | > 100 µM (inactive) | > 100 µM (inactive) | > 100 µM (inactive) | > 100 | > 100 µM (inactive) | > 100 µM (inactive) | > 100 µM (inactive) | > 100 µM (inactive) | > 100 µM (inactive) | > 100 µM (inactive) | > 100 µM (inactive) | > 100 µM (inactive) | – | > 100 µM (inactive) | > 100 µM (inactive)
NC(=O)c1cc(N(CCO)CCO)c([N+](=O)[O-])cc1[N+](=O)[O-] | > 100 µM (inactive) | > 100 µM (inactive) | > 100 µM (inactive) | > 100 µM (inactive) | > 100 µM (inactive) | > 100 µM (inactive) | > 100 µM (inactive) | > 100 | > 100 µM (inactive) | > 100 µM (inactive) | > 100 µM (inactive) | > 100 µM (inactive) | > 100 µM (inactive) | > 100 µM (inactive) | – | > 100 µM (inactive) | > 100 µM (inactive) | > 100 µM (inactive) | > 100 µM (inactive)
CCC1=C(C)C(=O)N/C1=C\c1[nH]c(C)c([C@H](C)CCN)c1C | 17.3 µM (inactive) | 16.2 µM (inactive) | 18.7 µM (inactive) | 13.3 µM (inactive) | 25.6 µM (inactive) | 17.3 µM (inactive) | – | 14.8 | 16.4 µM (inactive) | 16 µM (inactive) | 15.3 µM (inactive) | 17.1 µM (inactive) | 15.1 µM (inactive) | 16.1 µM (inactive) | 17.4 µM (inactive) | 17.2 µM (inactive) | 9.98 µM (inactive) | 15.5 µM (inactive) | –
CCOC(=O)c1c(N=C(S)Nc2ccc(Cl)cc2)sc2c1CCN(C)C2 | – | > 100 µM (inactive) | > 100 µM (inactive) | > 100 µM (inactive) | 33.9 µM (inactive) | > 100 µM (inactive) | – | 97.9 | > 100 µM (inactive) | 74 µM (inactive) | – | > 100 µM (inactive) | – | > 100 µM (inactive) | > 100 µM (inactive) | > 100 µM (inactive) | > 100 µM (inactive) | > 100 µM (inactive) | > 100 µM (inactive)
C=CCCON(C(=O)OC(C)(C)C)C(C)(C)C | > 100 µM (inactive) | > 100 µM (inactive) | > 100 µM (inactive) | > 100 µM (inactive) | > 100 µM (inactive) | > 100 µM (inactive) | – | > 100 | > 100 µM (inactive) | > 100 µM (inactive) | > 100 µM (inactive) | > 100 µM (inactive) | > 100 µM (inactive) | > 100 µM (inactive) | > 100 µM (inactive) | > 100 µM (inactive) | > 100 µM (inactive) | – | > 100 µM (inactive)
O=C(CN1CCCC1=O)CS(=O)(=O)c1ccccc1 | > 100 µM (inactive) | > 100 µM (inactive) | > 100 µM (inactive) | > 100 µM (inactive) | > 100 µM (inactive) | > 100 µM (inactive) | > 100 µM (inactive) | – | > 100 µM (inactive) | > 100 µM (inactive) | > 100 µM (inactive) | – | > 100 µM (inactive) | > 100 µM (inactive) | – | > 100 µM (inactive) | – | > 100 µM (inactive) | > 100 µM (inactive)
Cc1ccc(NNc2cc(=O)[nH]c(=O)[nH]2)cc1Cl | 17.2 µM (inactive) | 43.2 µM (inactive) | 16.5 µM (inactive) | 16.8 µM (inactive) | 10.9 µM (inactive) | 18.3 µM (inactive) | 15.7 µM (inactive) | 10.6 | 16.6 µM (inactive) | 14.8 µM (inactive) | 5.71 µM (inactive) | 14.4 µM (inactive) | 16.4 µM (inactive) | 29 µM (inactive) | 15.8 µM (inactive) | 73.5 µM (inactive) | 9.95 µM (inactive) | – | 22.3 µM (inactive)
Cc1ccc(CC(C)N)cc1 (stereo not drawn) | > 100 µM (inactive) | > 100 µM (inactive) | > 100 µM (inactive) | > 100 µM (inactive) | > 100 µM (inactive) | > 100 µM (inactive) | > 100 µM (inactive) | > 100 | > 100 µM (inactive) | > 100 µM (inactive) | > 100 µM (inactive) | > 100 µM (inactive) | > 100 µM (inactive) | > 100 µM (inactive) | – | > 100 µM (inactive) | – | – | –
COc1cc([C@@H]2c3cc4c(cc3[C@@H](NC(=O)c3cccc(C#N)c3)C3COC(=O)[C@@H]32)OCO4)cc(OC)c1O (stereo partly drawn) | 2.92 µM (inactive) | 1.32 µM (inactive) | 3.55 µM (inactive) | 0.214 µM (active) | 7.14 µM (inactive) | 0.308 µM (active) | 1.84 µM (inactive) | 3.81 | 2.96 µM (inactive) | 2.75 µM (inactive) | 0.398 µM (active) | 0.678 µM (active) | 0.155 µM (active) | 0.0178 µM (active) | – | 0.815 µM (active) | – | – | –
COC(=O)C12OC(C)(C(CC(=O)OC(C)(C)C)C1=O)C1C(=O)N(c3ccccc3)C(=O)C12 (stereo not drawn) | > 100 µM (inactive) | > 100 µM (inactive) | > 100 µM (inactive) | > 100 µM (inactive) | > 100 µM (inactive) | > 100 µM (inactive) | > 100 µM (inactive) | > 100 | > 100 µM (inactive) | > 100 µM (inactive) | > 100 µM (inactive) | > 100 µM (inactive) | > 100 µM (inactive) | > 100 µM (inactive) | > 100 µM (inactive) | > 100 µM (inactive) | > 100 µM (inactive) | – | > 100 µM (inactive)
COC(C)(C)C1=CCC(C)CC1 (stereo not drawn) | > 100 µM (inactive) | > 100 µM (inactive) | – | > 100 µM (inactive) | > 100 µM (inactive) | > 100 µM (inactive) | > 100 µM (inactive) | > 100 | > 100 µM (inactive) | > 100 µM (inactive) | – | > 100 µM (inactive) | > 100 µM (inactive) | > 100 µM (inactive) | – | > 100 µM (inactive) | – | 41.8 µM (inactive) | > 100 µM (inactive)
O=C1N[C@@H](COc2ccc(/C=N/c3ccc(CCc4ccc(/N=C/c5ccc(OC[C@@H]6COC(=O)N6)cc5)cc4)cc3)cc2)CO1 | > 100 µM (inactive) | > 100 µM (inactive) | > 100 µM (inactive) | – | > 100 µM (inactive) | > 100 µM (inactive) | – | > 100 | > 100 µM (inactive) | > 100 µM (inactive) | > 100 µM (inactive) | > 100 µM (inactive) | > 100 µM (inactive) | > 100 µM (inactive) | > 100 µM (inactive) | > 100 µM (inactive) | > 100 µM (inactive) | – | > 100 µM (inactive)
COc1ccc(OC)c(CNc2ccc(C(=O)O)cc2)c1 | > 100 µM (inactive) | > 100 µM (inactive) | > 100 µM (inactive) | > 100 µM (inactive) | > 100 µM (inactive) | > 100 µM (inactive) | > 100 µM (inactive) | > 100 | > 100 µM (inactive) | > 100 µM (inactive) | > 100 µM (inactive) | > 100 µM (inactive) | > 100 µM (inactive) | > 100 µM (inactive) | > 100 µM (inactive) | > 100 µM (inactive) | – | > 100 µM (inactive) | > 100 µM (inactive)
O=C1CCCc2ccc3c(c21)CC1(Cc2cc4c(cc2C1)CCCC4)C3 | 24.9 µM (inactive) | 29 µM (inactive) | 21.2 µM (inactive) | 18.2 µM (inactive) | 10.2 µM (inactive) | 20.3 µM (inactive) | 42.9 µM (inactive) | 19.4 | 14.8 µM (inactive) | 20.1 µM (inactive) | 14.6 µM (inactive) | – | 20.4 µM (inactive) | 22 µM (inactive) | 15.5 µM (inactive) | 12.6 µM (inactive) | 5.38 µM (inactive) | 17.5 µM (inactive) | –
O=c1[nH]c2nccnc2c2c([N+](=O)[O-])cccc12 | > 100 µM (inactive) | > 100 µM (inactive) | > 100 µM (inactive) | > 100 µM (inactive) | > 100 µM (inactive) | > 100 µM (inactive) | > 100 µM (inactive) | > 100 | > 100 µM (inactive) | > 100 µM (inactive) | 81.8 µM (inactive) | – | > 100 µM (inactive) | > 100 µM (inactive) | – | 88.3 µM (inactive) | 20.5 µM (inactive) | > 100 µM (inactive) | 78.9 µM (inactive)
